In one test the test system is U937 cells. The test can be described thus: sLe^X expression in U937 cells. The format is cell-based. An excerpt: (§1) A 4-deoxy modified acetylated disaccharide inhibits sLe^X expression in the absence of oligosaccharide priming.
A further test deals with LLC cells. The test can be described thus: Experimental metastasis of pretreated LLC cells. The test is classed as in vivo, mice. The following applies: cells treated 5 days, 3 weeks. Here is the method:
(A) LLC cells were treated in culture for 4 days with peracetylated GlcNAcβ3Gal-NM or vehicle (DMSO/propylene glycol, v/v 1:1). Single-cell suspensions (2×10^5) were injected in the tail-veins of Es1(e) mice. After 3 weeks, the mice were sacrificed and the number of tumors present on the surface of the lungs was determined by visual inspection.
LLC cells were treated in culture for 5 days with 4-deoxy AcGnG-NM, AcGnG-NM or vehicle (DMSO:propylene glycol) and then a single-cell suspension (2×10^5 cells) was injected in the tail vein of mice. After 3 weeks, the number of tumors present on the surface of the lungs was determined.

In another test the test system is mixed oligosaccharides. The test can be described thus: Oligosaccharide priming, [6-3H]Gal incorporation. The test is classed as cell-based.
Source text: as §1

Test [1] has as its system β4GalTI. The following applies: cited from earlier work.
The subject of test [2] is Lewis carbohydrate antigens on cells. The following applies: monosaccharide; cited from earlier work.
Test [3] relates to β4GalTI. The test can be described thus: Acceptor specificity and inhibitory action of GlcNAc derivatives (β4galactosyltransferase). The format is biochemical. The following applies: no reference given. The source says:
The compounds in Table 1 were selected based on information about β4GalTI, also known as lactose synthase. The enzyme adds galactose to GlcNAc-terminated oligosaccharides on glycoproteins and glycolipids, and will produce lactose in the presence of the cofactor, α-lactalbumin (Berger et al., Biochimie., 85, 261-274, 2003). It is part of a multigene family of β4galactosyltransferases (Hennet, Cell Mol Life. Sci., 59, 1081-1095, 2002; Amado et al., Biochim. Biophys. Acta Gen. Subj., 1473, 35-53, 1999). β4GalTI has been studied kinetically, its substrate specificity has been well documented, and X-ray structures with and without UDP-Gal are available (Gastinel et al., EMBO J., 18, 3546-3557, 1999; Ramakrishnan et al., J. Mol. Biol., 310, 205-218, 2001; Ramakrishnan et al., J. Mol. Biol., 318, 491-502, 2002).
β4GalTI will act on free GlcNAc, GlcNAc-terminated oligosaccharides and GlcNAc glycosides, including GlcNAcβ3Gal-R (Table 2). […] One possibility for the discrepancy may be that the large aromatic aglycone in our compound may facilitate binding to the enzyme. […]

Test [4] deals with LS180 cells adhering to recombinant E- or P-selectin. The test can be described thus: Cell adhesion to immobilized selectins, control values given for E- and P-selectin together. The test is classed as cell-based, human. Here is the method: Cell adhesion to immobilized selectins. 96-well plates were coated overnight at 4° C. with recombinant E-selectin (4 μg/ml) or P-selectin (2 μg/ml) (R & D Systems) and blocked with 1% BSA/PBS. LS180 cells were grown for 5 days with various amounts of acetylated disaccharide, harvested, labeled with Calcein AM (5 μM, Molecular Probes) in DMEM/1% FBS, and allowed to settle at room temperature on selectin-coated wells (5×10^4 cells/well). Plates were then stirred at 75 rpm for 30 min (Orbit shaker, Lab-Line Instruments) followed by immersion upside-down in a vessel filled with Hank's buffered saline solution (HBSS, Sigma), which allowed non-adherent cells to fall under gravity. St John et al., J. Immunol Methods, 170: 159-166, 1994. The wells were then washed by aspiration using HBSS. LS180 cells were less adherent to P-selectin, so the immersion step was not necessary prior to washing. […] Fluorescence was measured using a 96-well fluorimeter (CytoFluor II), and the average of triplicate measurements was determined±standard error. Cell viability was judged to be >90% by Trypan blue exclusion at the end of each experiment.
Adhesion to selectins is altered in disaccharide-treated tumor cells. Treatment of LS180 cells with AcGnG-NM was not toxic to the cells up to 100 μM based on growth curves and exclusion of Trypan blue. […]

In test [5] the test system is sLe^X on LS180 cell surface. The test can be described thus: ELISA with CSLEX-1 mAb of cell-surface sLe^X. The test is classed as cell-based, human. The following applies: LS180 cells. (An ELISA detects its analyte on a solid surface through an enzyme-linked reagent.)
Test [6] concerns sialyl Lewis X in HL-60, LS180, murine Lewis lung carcinoma, B16 murine melanoma cells. The test can be described thus: Inhibition of sialyl Lewis X formation in cultured cells. The test is classed as cell-based. An excerpt:
The disaccharides can be acylated with, e.g., acetyl, butyryl or benzoyl groups to reduce their hydrophilicity and make them permeable to cell membranes. […] The various disaccharides described above and their acylated or aryl derivatives are logical extensions of the present invention. In addition, analogs of the above compounds in which critical hydroxyl groups are missing or alkylated would bind to glycosyltransfersase and inhibit their activity.

Where [7] appears, read: aromatic aglycones, read-out: Ki.

Where “and” joins values, the source holds several entries; their conditions need not be identical. Equal entries are not always repeated. Where two headings read alike, the source gives them in different places.

Consider “4′-deoxy-GlcNAcβ3Gal-O-NM [4-deoxy AcGnG-NM]”, for which the “sLe^X expression” value is “inhibit sLe^X expression” with U937 cells and “inhibits formation of sLe^X” with U937 cells (listed as 4-deoxy-GlcNAcβ3Gal-NM). Further, the “experimental metastasis (tumors on the surface of the lungs)” value in the test with LLC cells is given as “inhibited experimental metastasis”. Besides, in the test with mixed oligosaccharides, the “incorporation of [6-^3H]Gal into mixed oligosaccharides” value is given as “does not”.

For orientation: Km means the substrate concentration at which the rate is half of its maximum. A word on the Vmax: it is the top rate of the reaction or transport when substrate is in excess. Consider `CO[C@@H]1O[C@H](CO)[C@@H](O)[C@H](OC)[C@H]1NC(C)=O` [3-O-methyl-GlcNAcβ-O-Me], for which, in the test with β4GalTI [1] (acceptor, read-out: Km), the Km was 77000 µM. For the same compound, in the test on β4GalTI [1], the Vmax is given as 2.4 nmol/min.

In the case of `CO[C@@H]1O[C@H](CO)[C@@H](O)C[C@H]1NC(C)=O` [3-deoxy-GlcNAcβ-OMe], the Km with β4GalTI [1] (acceptor, read-out: Km) is 4200 µM.

For orientation: Ki means a dissociation constant, usually derived from enzyme kinetics or from competition with a known ligand. Consider `CO[C@@H]1O[C@H](CO)[C@H](O)[C@H](O[C@@H]2O[C@H](CO)[C@@H](O)[C@H](F)[C@H]2NC(C)=O)[C@H]1O` [3′-F-GlcNAcβ3Galβ-OMe], for which the Ki on β4GalTI [1] (read-out: Ki) was 2700 µM.

For `CC(=O)NC1C(OCc2ccccc2)OC(CO)C(N)C1O` (centres unmarked) [4-NH2-GlcNAcβ-OBn], the Km entry in the test on β4GalTI [1] (acceptor, unit not given) is given as “Inactive”. Moreover, the inhibition constant Ki on β4GalTI [1] (read-out: Ki) was 850 µM. The Vmax result in the test with β4GalTI [1] (unit not given) is “Inactive”.

As to `COC1OC(CO)C(OC)C(O)C1NC(C)=O` (centres unmarked) [4-O-methyl-GlcNAcβ-O-Me], the Km result in the test on β4GalTI [1] (acceptor, unit not given) was “Inactive”. In addition, the Ki entry on β4GalTI [1] (result in words) is reported as “No inhibition”. The Vmax result with β4GalTI [1] (unit not given) is on record as “Inactive”.

Regarding `COC1OC(CO)CC(O)C1NC(C)=O` (centres unmarked) [4-deoxy-GlcNAcβ-O-Me], in the test on β4GalTI [1] (acceptor, unit not given), the Km entry is on record as “Inactive”. In the test on β4GalTI [1], the “inhibition of the enzyme (β4GalT1)” value was “did not inhibit”. Moreover, at β4GalTI [1] (result in words), the Ki result is “No inhibition”. Moreover, the Vmax entry in the test with β4GalTI [1] (unit not given) is “Inactive”.

`COC1OC(CO)C(F)C(O)C1NC(C)=O` (centres unmarked) [4-fluoro-GlcNAcβ-OMe]: the Km entry in the test on β4GalTI [1] (acceptor, unit not given) was “Inactive”. Also, the Ki result at β4GalTI [1] (result in words) is “No inhibition”. Further, in the test with β4GalTI [1] (unit not given), the Vmax result is listed as “Inactive”.

As for `COC1OC(CO)C(S)C(O)C1NC(C)=O` (centres unmarked) [4-thio-GlcNAcβ-OMe], the Km entry with β4GalTI [1] (acceptor, unit not given) is given as “Inactive”. Also, at β4GalTI [1] (result in words), the Ki entry was “No inhibition”. Further, the Vmax entry in the test with β4GalTI [1] (unit not given) is reported as “Inactive”.

As to `COC1OC(CO)C(O)C(OC2OC(CO)CC(O)C2NC(C)=O)C1O` (centres unmarked) [4′-deoxy-GlcNAcβ3Galβ-OMe], the Km entry with β4GalTI [1] (acceptor, unit not given) is reported as “Inactive”. Also, the “inhibition of the enzyme (β4GalT1)” value in the test with β4GalTI [1] is on record as “did not inhibit”. For the same compound, the Ki entry at β4GalTI [1] (result in words) is reported as “No inhibition”.

Regarding `COC1OC(COC2OC(CO)CC(O)C2NC(C)=O)C(O)C(O)C1O` (centres unmarked) [4′-deoxy-GlcNAcβ6Glcβ-OMe], the Km result with β4GalTI [1] (acceptor, unit not given) is “Inactive”. At β4GalTI [1] (result in words), the Ki result was “No inhibition”.

For the compound `COC[C@H]1O[C@@H](OC)[C@H](NC(C)=O)[C@@H](O)[C@@H]1O` [6-O-methyl-GlcNAcβ-O-Me], in the test on β4GalTI [1], the Vmax was 1.1 nmol/min.

As for `CO[C@@H]1O[C@H](C)[C@@H](O)[C@H](O)[C@H]1NC(C)=O` [6-deoxy-GlcNAcβ-O-Me], the Km in the test on β4GalTI [1] (acceptor, read-out: Km) was 500 µM.

For the compound `COC1OC(CO)C(O)C(OC2OC(CS)C(O)C(O)C2NC(C)=O)C1O` (centres unmarked) [6′-thio-GlcNAcβ3Galβ-OMe], the Km entry in the test with β4GalTI [1] (acceptor, unit not given) is given as “Inactive”. Further, the “inhibition of the enzyme (β4GalT1)” value in the test on β4GalTI [1] was “weak inhibitor”. Moreover, the Ki at β4GalTI [1] (read-out: Ki) is 1000 µM. Also, the Vmax entry in the test on β4GalTI [1] (unit not given) is listed as “Inactive”.

`CO[C@@H]1O[C@H](CO[C@@H]2O[C@H](CS)[C@@H](O)[C@H](O)[C@H]2NC(C)=O)[C@@H](O)[C@H](O)[C@H]1O` [6′-thio-GlcNAcβ6Glcβ-OMe]: the Km with β4GalTI [1] (acceptor, read-out: Km) was 1200 µM.

Regarding `OC[C@@H]1C[C@H](O)[C@@H](O)C(O)O1` (some centres unmarked) [Compound 4-deoxy-Glc, 4-deoxy-Glc], in the test with β4GalTI [1] (in the presence of lactalbumin), the “inhibition of β4GalT1” value is recorded as “weak inhibitor”.

With `CC(=O)N[C@H]1[C@@H](OCc2ccccc2)O[C@H](CO)[C@H](O)[C@@H]1O` [GalNAcα-O-benzyl], the “concentration needed to achieve a similar level of inhibition” value in [2] was 1 to 5 mM.

With `CC(=O)N[C@H]1C(O)O[C@H](CO)[C@@H](O)[C@@H]1O` (some centres unmarked) [GlcNAc], in the test on β4GalTI [1] (read-out: Km), the Km was 1000 to 10000 µM.

For `CC(=O)N[C@H]1[C@H](O[C@H]2[C@@H](O)[C@@H](CO)O[C@@H](OCc3ccc4ccccc4c3)[C@@H]2O)O[C@H](CO)[C@@H](O)[C@@H]1O` [GlcNAcβ3Galβ-O-2-NM], the Km in the test on β4GalTI [3] is below 10 µM.

Take `CO[C@@H]1O[C@H](CO)[C@H](O)[C@H](O[C@@H]2O[C@H](CO)[C@@H](O)[C@H](O)[C@H]2NC(C)=O)[C@H]1O` [GlcNAcβ3Galβ-OMe]: the Km in the test on β4GalTI [1] (acceptor, read-out: Km) was 1100 µM.

For the compound `CC(=O)NC1C(Oc2cccc3ccccc23)OC(CO)C(O)C1O` (centres unmarked) [GlcNAcβ-O-1-naphthol], at β4GalTI [1] (setting [7]), the Ki was 22 µM.

`CC(=O)N[C@H]1[C@H](Oc2c(Br)ccc3ccccc23)O[C@H](CO)[C@@H](O)[C@@H]1O` [GlcNAcβ-O-2-bromonaphthol]: the Ki on β4GalTI [1] (setting [7]) is 7.6 µM.

As to `CC(=O)N[C@H]1[C@H](Oc2c(C)ccc3ccccc23)O[C@H](CO)[C@@H](O)[C@@H]1O` [GlcNAcβ-O-2-methylnaphthol], on β4GalTI [1] (setting [7]), the Ki was 3.5 µM.

In the case of `CC(=O)NC1C(Oc2ccc3ccccc3c2)OC(CO)C(O)C1O` (centres unmarked) [GlcNAcβ-O-2-naphthol], the Ki on β4GalTI [1] (setting [7]) was 9.5 µM.

On to `CO[C@@H]1O[C@H](CO)[C@@H](O)[C@H](O)[C@H]1NC(C)=O` [GlcNAcβ-O-Me], for which the Michaelis-Menten constant (Km) in the test on β4GalTI [1] (acceptor, read-out: Km) is 1300 µM and 1800 µM and 1500 µM.

In the case of “Galβ1,3Galβ-O-naphthalenemethanol [AcGG-NM]”, in test [4] (E- and P-selectin, disaccharide at 50 μM), the “extent of adhesion normalized to cells not treated with disaccharide” value was 0.95-1.1. Besides, the “adhesion to either selectin conjugate” value in [4] (LS180 cells) was “no effect”. The “expression of sLe^X on the cell surface” value in [5] is listed as “no effect”.

Regarding “Galβ1,4GlcNAcβ-O-naphthalenemethanol [AcGGn-NM]”, the “formation of sialyl Lewis X” value in test [6] is “inhibit the formation of sialyl Lewis X”.

These data come from patent US7772192B2, “Compositions and methods for treatment of disease with acetylated disaccharides” (The Regents of the University of California, priority 2003, dated 2010).
